The record followed here is ChEMBL document CHEMBL5390267, “Selective Activation of a TRPC6 Ion Channel Over TRPC3 by Metalated Type-B Polycyclic Polyprenylated Acylphloroglucinols” (J Med Chem, 2023).

In brackets after ≈: the same amount, converted by molar mass. Activity calls are given as the source filed them. The calls are words filed in the database; no cut-off is given here.

Series [1] concerns PC12. Put plainly: Agonist activity at TRPC6 channel in rat PC12 cells assessed as induction of intracellular calcium level at 10 uM by FLIPR calcium 6 assay. Particulars: time 2.0 hrs. It counts as cell-based.
For series [2], the target named is T1, Short transient receptor potential channel 6 (Homo sapiens) (UniProt Q9Y210).
T1 sequence (whole entry): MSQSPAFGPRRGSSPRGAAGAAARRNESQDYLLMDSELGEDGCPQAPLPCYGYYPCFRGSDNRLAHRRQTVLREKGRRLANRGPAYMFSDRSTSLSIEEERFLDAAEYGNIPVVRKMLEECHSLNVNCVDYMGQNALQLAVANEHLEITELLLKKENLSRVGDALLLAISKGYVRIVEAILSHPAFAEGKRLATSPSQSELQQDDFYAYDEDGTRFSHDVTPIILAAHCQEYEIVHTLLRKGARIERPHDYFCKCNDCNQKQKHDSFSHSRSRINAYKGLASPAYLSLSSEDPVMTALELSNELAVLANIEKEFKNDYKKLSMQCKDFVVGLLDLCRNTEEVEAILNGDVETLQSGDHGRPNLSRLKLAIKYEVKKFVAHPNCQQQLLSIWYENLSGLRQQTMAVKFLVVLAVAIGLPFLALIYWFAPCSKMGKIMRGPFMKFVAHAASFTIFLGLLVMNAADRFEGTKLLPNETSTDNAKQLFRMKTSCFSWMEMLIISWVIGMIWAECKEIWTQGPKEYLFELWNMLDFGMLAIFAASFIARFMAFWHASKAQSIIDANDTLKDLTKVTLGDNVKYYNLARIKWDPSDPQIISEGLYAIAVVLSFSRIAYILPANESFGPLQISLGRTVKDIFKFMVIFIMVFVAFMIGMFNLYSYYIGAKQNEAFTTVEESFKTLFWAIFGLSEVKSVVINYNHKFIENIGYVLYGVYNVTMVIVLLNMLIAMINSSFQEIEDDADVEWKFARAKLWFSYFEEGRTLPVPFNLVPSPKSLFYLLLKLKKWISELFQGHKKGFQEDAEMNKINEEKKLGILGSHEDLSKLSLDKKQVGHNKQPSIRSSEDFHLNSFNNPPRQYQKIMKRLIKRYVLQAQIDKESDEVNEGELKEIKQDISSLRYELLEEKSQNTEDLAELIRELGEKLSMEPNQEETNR
Put plainly: Agonist activity at […] TRPC6 channel in HEK293 cells assessed as intracellular calcium influx stimulation at 10 uM by Fura-2 AM staining based calcium influx assay. It counts as cell-based. Particulars: filed as agonist.

Series [3] has as its target T1, Short transient receptor potential channel 6 (Homo sapiens). Put plainly: Agonist activity at TRPC6 channel in HEK293 cells assessed as intracellular calcium influx stimulation at 1 to 10 uM by Fura-2 AM staining based calcium influx assay. It counts as cell-based. As to conditions: filed as agonist, dose 1-10 µM.
The nature of series [4]: Photostability of compound assessed as compound decomposition at 5 mg incubated for 1 week under natural sun light-irradiation and air. It counts as physicochemical. Particulars: 168 h, time 1 weeks.
Series [5] is described as follows: Stability in CD-1 mouse plasma assessed as half life at 1 uM incubated for 15 mins by HPLC-MS/MS analysis. It counts as ADME, cell-free.
Series [6] in a line: Metabolic stability in mouse liver microsomes assessed as intrinsic clearance at 1 uM incubated for 120 mins in presence of NADPH by HPLC-MS/MS analysis. As to conditions: read-out: CLH. It counts as ADME, Microsome.
Series [7] is described as follows: Kinetic solubility of compound in 1% DMSO/PBS incubated for 5 mins under shaking condition by turbidimetric method. Particulars: read-out: Kinetic_solubility. It counts as physicochemical.
Series [8] can be described thus: Metabolic stability in mouse liver microsomes assessed as half life at 1 uM incubated for 120 mins in presence of NADPH by HPLC-MS/MS analysis. It counts as ADME, Microsome.
Series [9] addresses T2, Short transient receptor potential channel 3 (Homo sapiens) (UniProt Q13507).
T2 sequence (whole entry): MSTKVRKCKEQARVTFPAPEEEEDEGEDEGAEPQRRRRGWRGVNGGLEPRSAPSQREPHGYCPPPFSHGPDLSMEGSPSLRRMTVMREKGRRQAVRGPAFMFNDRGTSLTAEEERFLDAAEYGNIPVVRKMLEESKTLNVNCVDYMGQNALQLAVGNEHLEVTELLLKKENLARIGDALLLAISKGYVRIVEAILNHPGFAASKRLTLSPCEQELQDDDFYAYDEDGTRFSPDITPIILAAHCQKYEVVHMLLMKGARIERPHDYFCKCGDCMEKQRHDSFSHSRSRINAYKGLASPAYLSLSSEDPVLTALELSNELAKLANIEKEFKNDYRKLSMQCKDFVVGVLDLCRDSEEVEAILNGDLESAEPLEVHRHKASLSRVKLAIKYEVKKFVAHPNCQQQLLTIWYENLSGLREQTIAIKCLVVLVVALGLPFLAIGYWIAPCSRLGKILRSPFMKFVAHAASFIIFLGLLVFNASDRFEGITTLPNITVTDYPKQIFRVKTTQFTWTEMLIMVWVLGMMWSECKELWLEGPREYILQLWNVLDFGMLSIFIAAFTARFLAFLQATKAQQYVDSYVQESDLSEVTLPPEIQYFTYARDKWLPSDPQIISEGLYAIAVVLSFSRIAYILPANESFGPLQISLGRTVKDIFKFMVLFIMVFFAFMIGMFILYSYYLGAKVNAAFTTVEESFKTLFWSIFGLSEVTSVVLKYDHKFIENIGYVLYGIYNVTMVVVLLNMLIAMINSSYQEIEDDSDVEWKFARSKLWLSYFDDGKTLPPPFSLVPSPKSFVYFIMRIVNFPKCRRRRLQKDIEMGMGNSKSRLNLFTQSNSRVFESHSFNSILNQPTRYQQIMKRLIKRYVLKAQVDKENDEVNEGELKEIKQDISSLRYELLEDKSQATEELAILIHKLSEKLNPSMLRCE
In words: Agonist activity at […] TRPC3 channel in HEK293 cells assessed as intracellular calcium influx stimulation at 10 uM by Fura-2 AM staining based calcium influx assay. It counts as cell-based. As to conditions: filed as agonist.

With `CC(C)=CCC[C@]1(C)[C@@H](CC=C(C)C)C[C@]2(CC=C(C)C)C(=O)C(CC=C(C)C)=C(O)[C@@]1(C(=O)C(C)C)C2=O`, the result in [1] (filed as agonist) and in [2] was Active.
As to `CC(=O)C1=C(O)[C@@]2(CC=C(C)C)C[C@H](CC=C(C)C)C(C)(C)[C@@](CC=C(C)C)(C1=O)C2=O`, the result in series [1] was inactive.
For `CC(C)=CC[C@H]1C[C@@]2(CC=C(C)C)C(=O)[C@](CC=C(C)C)(C(=O)C(C(=O)c3ccccc3)=C2O)C1(C)C`, the result in series [1] was inactive.
Regarding `C=CC[C@@]12C[C@H](CC=C(C)C)C(C)(C)[C@@](CC=C)(C(=O)C(C(C)=O)=C1O)C2=O` [listing 1 of 2 here], the result in series [1] (filed as agonist), in [2] and in series [3] was Active.
With `C=CC[C@@]12C[C@H](CC=C(C)C)C(C)(C)[C@@](CC=C)(C(=O)C(C(C)=O)=C1[O-])C2=O.[Na+]`, in [4], the Stability entry is on record as “Stable”. For the same compound, the values for the half-life at 1 µM in series [5] and in series [8] were 154 min and 31.5 min, respectively. Also, the microsomal CLint at 1 µM in [6] came to 44.7 µL/min/mg. Moreover, the solubility kinetic at 5 min in [7] is over 200 µM.
For the compound `C=CC[C@@]12C[C@H](CC=C(C)C)C(C)(C)[C@@](CC=C)(C(=O)C(C(C)=O)=C1O)C2=O` [listing 2 of 2 here], in [7], the solubility kinetic at 5 min was determined as 49.1 µM (≈ 18.9 µg/mL).
Consider `CCCCCCCC/C=C\CCCCCCCC(=O)OC[C@H](CO)OC(C)=O`, for which the result in series [9] and in series [2] was Active.
